Literature values, collected in patent US20070027075A1, “Compositions and methods for targeted drug delivery” (priority 2003, published 2007).

Target: prostate-specific antigen (Homo sapiens, UniProt P07288)
Conditions: PSA

Chain of prostate-specific antigen (P07288 25-261): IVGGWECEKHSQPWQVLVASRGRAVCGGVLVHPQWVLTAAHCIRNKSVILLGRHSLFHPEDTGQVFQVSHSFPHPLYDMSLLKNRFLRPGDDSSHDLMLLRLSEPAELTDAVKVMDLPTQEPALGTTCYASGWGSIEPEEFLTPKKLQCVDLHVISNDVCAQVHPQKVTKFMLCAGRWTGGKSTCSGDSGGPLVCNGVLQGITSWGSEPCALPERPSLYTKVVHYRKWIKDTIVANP

Sequence: CVFTSDYAFC
- Kd: 8 µM
